Data reported in article PMC10267539 (EJNMMI Radiopharmacy and Chemistry, 2023).
Values belong to the molecule of their own block, whether it stands above or below them.

Columns and labels:
[1] = based on toxicity study in Wistar rats
[2] = In vitro stability in PBS and serum; format: in vitro ADME; conditions: 37 °C, after 5 h, starting radiochemical purity 94.3%
[3] = system: SSTR2 expressing cells (BON-1.SSTR2); assay: Cell binding and internalization; format: cell-based; conditions: BON-1.SSTR2, 60 min incubation
[4] = system: BON-1.SSTR2; assay: Clonogenic assay; format: cell-based
[5] = molecular target: CXCR4 (UniProt P61073); assay: competitive binding assay on cells with a fluorescent ligand
Chain of CXCR4 (P61073 whole entry): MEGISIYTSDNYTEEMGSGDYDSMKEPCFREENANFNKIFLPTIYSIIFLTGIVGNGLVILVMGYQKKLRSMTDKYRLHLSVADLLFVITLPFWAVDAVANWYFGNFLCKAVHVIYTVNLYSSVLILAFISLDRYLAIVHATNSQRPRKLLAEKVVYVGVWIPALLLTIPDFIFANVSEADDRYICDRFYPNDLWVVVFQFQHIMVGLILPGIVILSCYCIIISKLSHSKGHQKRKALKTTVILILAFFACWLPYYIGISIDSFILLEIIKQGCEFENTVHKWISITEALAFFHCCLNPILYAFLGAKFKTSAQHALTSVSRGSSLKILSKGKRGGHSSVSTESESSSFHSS

[6] = molecular target: CXCR4 (UniProt P61073); assay: radioligand binding
[7] = molecular target: glucagon-like peptide-1 (GLP-1) receptor (UniProt P43220); assay: competitive binding assay on cells
Chain of glucagon-like peptide-1 (GLP-1) receptor (P43220 24-463): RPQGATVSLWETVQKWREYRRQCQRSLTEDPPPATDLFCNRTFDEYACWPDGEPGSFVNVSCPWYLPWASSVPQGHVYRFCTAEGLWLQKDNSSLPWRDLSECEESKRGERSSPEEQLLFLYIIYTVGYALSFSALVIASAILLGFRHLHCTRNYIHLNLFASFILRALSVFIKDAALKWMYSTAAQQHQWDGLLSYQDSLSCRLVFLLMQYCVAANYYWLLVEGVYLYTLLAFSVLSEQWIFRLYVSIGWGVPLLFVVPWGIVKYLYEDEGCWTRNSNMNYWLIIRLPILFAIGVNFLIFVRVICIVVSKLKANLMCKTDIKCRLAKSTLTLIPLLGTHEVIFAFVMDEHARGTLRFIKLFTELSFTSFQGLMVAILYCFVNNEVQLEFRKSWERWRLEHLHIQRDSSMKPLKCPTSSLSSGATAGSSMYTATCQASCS

[8] = 37 °C, after 6 h
[9] = system: platelet aggregation
[10] = molecular target: fibrin (UniProt P02679); assay: binding of the radiolabelled pept
Chain of fibrin (P02679 whole entry, looked up): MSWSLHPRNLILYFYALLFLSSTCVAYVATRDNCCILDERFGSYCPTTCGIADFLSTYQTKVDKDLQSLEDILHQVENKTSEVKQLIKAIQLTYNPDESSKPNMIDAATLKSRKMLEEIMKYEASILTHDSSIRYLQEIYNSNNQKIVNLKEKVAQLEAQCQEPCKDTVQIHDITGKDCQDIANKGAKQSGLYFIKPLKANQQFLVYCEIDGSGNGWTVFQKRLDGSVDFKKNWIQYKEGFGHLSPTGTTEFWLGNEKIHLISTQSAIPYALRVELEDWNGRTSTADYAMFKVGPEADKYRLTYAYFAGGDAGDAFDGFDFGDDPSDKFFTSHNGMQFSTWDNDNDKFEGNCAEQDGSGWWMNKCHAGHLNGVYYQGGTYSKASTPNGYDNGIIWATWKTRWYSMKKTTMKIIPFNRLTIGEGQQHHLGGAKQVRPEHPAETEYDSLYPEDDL

[11] = system: plaque inflammation; assay: F-18 FDG PET of plaque inflammation (carotid TBR); format: in vivo, human
Description: Materials and methods: We retrospectively analyzed F-18 FDG PET scans of patients treated with I-131 rituximab for the first time for relapsed or refractory CD20(+) B cell lymphoma. F-18 FDG PET scans were performed before (PET1), 5 days (PET2), and 1 m (PET3) after the administration of I-131 rituximab. […] TBRs measured in PET1, PET2, and PET3 were designated as TBR1, TBR2, and TBR3, respectively. Statistical analysis was performed using the Wilcoxon-test for comparison between the groups. In addition, we divided patients into 2 groups (patients with higher TBR1 versus equal to or lower TBR1 than the median value of TBR1) and compared TBRs on each PET dataset.

[12] = molecular target: T1, HER2 (Homo sapiens, UniProt P04626); assay: Binding by flow cytometry; conditions: BT-474 / MCF-7, cell line not stated
T1 construct: flow cytometry in BT-474 (high HER2 density) and MCF-7 (low HER2 density); endogenous in cells; host or cells: BT-474 and MCF-7 cells

[13] = molecular target: human cholecystokinin-2 receptor (CCK2R) (human) (UniProt P32239); assay: radioligand binding
Chain of human cholecystokinin-2 receptor (CCK2R) (human) (P32239 whole entry): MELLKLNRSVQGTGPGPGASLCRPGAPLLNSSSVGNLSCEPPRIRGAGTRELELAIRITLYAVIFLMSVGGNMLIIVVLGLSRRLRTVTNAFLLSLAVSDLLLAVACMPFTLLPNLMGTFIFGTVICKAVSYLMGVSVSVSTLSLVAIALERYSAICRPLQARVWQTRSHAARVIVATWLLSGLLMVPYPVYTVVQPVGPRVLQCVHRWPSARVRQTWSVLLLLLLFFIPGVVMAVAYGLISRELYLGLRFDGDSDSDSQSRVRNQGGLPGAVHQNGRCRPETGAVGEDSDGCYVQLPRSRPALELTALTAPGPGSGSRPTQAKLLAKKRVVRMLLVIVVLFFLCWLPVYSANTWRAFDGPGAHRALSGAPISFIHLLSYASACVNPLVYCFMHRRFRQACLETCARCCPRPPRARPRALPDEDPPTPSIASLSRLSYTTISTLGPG

[14] = molecular target: rat cholecystokinin-2 receptor (CCK2R) (rat) (UniProt P30553); assay: radioligand binding
Chain of rat cholecystokinin-2 receptor (CCK2R) (rat) (P30553 whole entry): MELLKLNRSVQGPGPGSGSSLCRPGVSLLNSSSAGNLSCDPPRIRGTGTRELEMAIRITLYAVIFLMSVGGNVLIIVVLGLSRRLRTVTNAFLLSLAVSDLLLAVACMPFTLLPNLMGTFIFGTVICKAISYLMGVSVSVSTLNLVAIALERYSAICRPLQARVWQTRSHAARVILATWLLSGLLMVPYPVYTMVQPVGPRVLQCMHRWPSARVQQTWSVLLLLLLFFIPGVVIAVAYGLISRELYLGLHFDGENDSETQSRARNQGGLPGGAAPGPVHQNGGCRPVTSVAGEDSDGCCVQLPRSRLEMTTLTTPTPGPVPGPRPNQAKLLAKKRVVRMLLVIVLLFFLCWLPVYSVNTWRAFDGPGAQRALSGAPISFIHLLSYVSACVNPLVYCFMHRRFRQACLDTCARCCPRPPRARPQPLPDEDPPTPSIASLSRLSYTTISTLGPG

Molecule: CCCC[C@@H](C(=O)N[C@@H](CC(=O)O)C(=O)N[C@@H](Cc1cccc2ccccc12)C(N)=O)N(C)C(=O)[C@H](Cc1c[nH]c2ccccc12)NC(=O)CNC(=O)[C@H](Cc1ccc(O)cc1)NC(=O)[C@H](C)NC(=O)[C@@H](CCC(=O)O)NC(=O)CN1CCN(CC(=O)O)CCN(CC(=O)O)CCN(CC(=O)O)CC1 [DOTA-MGS5]
maximum dose defined for the first therapeutic use [1]: 100 µg

Molecule: C[C@@H](O)[C@H](NC(=O)[C@@H]1CSSC[C@H](NC(=O)[C@@H](Cc2ccccc2)NC(=S)Nc2ccc(CCCC(CN3CCN(CC(=O)O)CCN(CC(=O)O)CC3)N(CC(=O)O)CC(=O)O)cc2)C(=O)N[C@@H](Cc2ccc(O)cc2)C(=O)N[C@H](Cc2c[nH]c3ccccc23)C(=O)N[C@@H](CCCCN)C(=O)N[C@@H]([C@@H](C)O)C(=O)N1)C(=O)O (stereo partly shown) [[^213Bi]Bi-3p-C-NETA-TATE, metal not drawn]
intact radiocomplex ([2]; PBS): 90% | remaining at 5 h ([2]; human serum, read-out: intact radiocomplex): 90% | cell binding [3]: 3.3 ± 0.5% | internalized share of cell binding [3]: 39.2% | activity required for cell surviving fraction of 0.1 (SF0.1) [4]: 0.1 MBq

Molecule: AlF-NOTA-(2×)DV1(c11sc12s) (peptide)
IC50 [5]: 1.3 nM

Molecule: AlF-NOTA-DV1-k-(DV3) (peptide)
IC50 [5]: 5.3 nM | total-bound fraction (u87.CXCR4 cells) [6]: 6%

Molecule: DOTA-MI-exendin-4 (from UniProt P26349 48-87) (peptide)
affinity [7]: < 11 nM

Molecule: DOTA-exendin-4 (from UniProt P26349 48-87) (peptide; other documents disagree on this pair)
affinity [7]: < 11 nM

Molecule: HYNIC-Gly-Pro-Lys-Gly-Ala-Ala-Asp [HYNIC-GPLGAAD]
stability in human plasma [8]: 95% | effect on platelet aggregation [9]: no effect on platelet aggregation

other [10]: 71.4%
Molecule: HYNIC-Gly-Pro-Lys-Gly-Ala-Ala-Asp peptide

Molecule: I-131 rituximab: radioimmunotherapy for CD20(+) B cell lymphoma
TBR1 ([11]; all 32 patients, PET1 before I-131 rituximab, mean and SD): 1.49 ± 0.28 | TBR2 ([11]; all 32 patients, PET2 5 days after, mean and SD, P = 0.008 vs TBR1): 1.36 ± 0.21 | TBR3 ([11]; all 32 patients, PET3 1 m after, mean and SD, P = 0.002 vs TBR1): 1.35 ± 0.19 | mean TBR ([11]; patients with higher TBR1 (n = 16), PET1): 1.69 | mean TBR ([11]; patients with higher TBR1 (n = 16), PET2, P = 0.001): 1.46 | mean TBR ([11]; patients with higher TBR1 (n = 16), PET3, P < 0.001): 1.42 | mean TBR ([11]; patients with lower TBR1 (n = 16), PET1): 1.29 | mean TBR ([11]; patients with lower TBR1 (n = 16), PET2): 1.26 | mean TBR ([11]; patients with lower TBR1 (n = 16), PET3): 1.29

Molecule: NOTA-MI-exendin-4 (from UniProt P26349 48-87) (peptide)
affinity [7]: < 11 nM

Molecule: NOTA-exendin-4 (from UniProt P26349 48-87) (peptide; other documents disagree on this pair)
affinity [7]: < 11 nM

Molecule: NOTA-rituximab: control IgG
KD [12]: no binding

other [13]: 68% | other [14]: 48.6%
Molecule: [^177Lu]Lu-DOTA-MGS5 (peptide)
